The values below come from patent publication US9134315B2, “Use of the lactosylceramide synthase isoform B1,4GalT-V as a biomarker for cancer” (The Johns Hopkins University, priority 2010, dated 2015).

Entries after “also recorded” stand apart in the source; their conditions may differ.

In series [1] the test system is HUVEC. The series is described as follows: In vitro angiogenesis/tube formation assay in HUVEC. Format: cell-based, human. The conditions noted are these: for Effect on VEGF-induced tube formation: pre-treatment with inhibitor; for Induction of tube formation: VEGF 10 ng/ml; for Bypass of D-PDMP inhibition of VEGF-induced tube formation: co-incubated with VEGF after D-PDMP pre-treatment. As for the experimental part: HUVECs were grown on 24-well culture plates and then exposed to various agonists/antagonists. After stipulated time points, cells were trypsinized, washed in sterile PBS twice and then reconstituted in EGM™ containing 2% FBS. In vitro angiogenesis assay was performed using a commercially available kit from Chemicon International. In brief, 50 μl of ECMatrix™ were placed on 96-well plates and allowed to polymerize at 37° C. for 2 hr. […] Tubes formed were documented using phase contrast microscope (NIKON) at 10× magnification. Images were acquired using CCD camera connected to computer with online image acquiring software AxioVision software (ZEISS). For quantification of tube lengths, images were exported to NIH Image J Software (http://rsb.info.hih.gov/ij/download.html). Results are shown as the mean tube length±SD (in um) for three photographic fields per experiment/well for at least three experiments per condition.

The test system of another series is U-937 cells. Put plainly: Transendothelial migration (TEM) of U-937 cells across HUVEC. The series is classed as cell-based, human. As for the experimental part:
(A) Western blot analysis of PECAM-1 expression in HUVECs that were pretreated with either LY294002 (75 μM), L-NAME (100 μM) or PDTC (25 μM) for 90 min, followed by incubation with VEGF (25 ng/ml) for 4 hrs. […] (C) HUVECs were pretreated with either LY294002 (75 μM), L-NAME (100 μM), PDTC (25 μM), PECAM-1 monoclonal antibody (4 μg/ml) or mouse IgG (4 μg/ml) for 90 min, followed by incubation with VEGF (25 ng/ml) for 4 hrs and then U937 (monocyte) TEM assays were performed as described below. *P<0.001 vs. vehicle control; **P<0.001 vs. […] TEM assays were performed as previously described. Wei et al., 320 BIOCHEM. BIOPHYS. RES. COMMUN. 1228-35 (2004). Briefly, HUVECs (3×10^5/ml) were placed on 0.2% gelatin coated upper side of Costar® Transwell® inserts (12 mm diameter, 3.0 μm pore-size) (Corning Incorporated, Acton, Mass.) and allowed to reach confluence. Afterwards, the cells were incubated with 2% FBS plus growth factor free EGM for 6 hrs. Subsequently, 3×10^6/ml U-937 promonocytic cell line was added to the upper chamber of the insert and allowed to migrate for 10-12 hrs. At the end of incubation, the U-937 cells that migrated to the lower chamber were carefully aspirated and washed in PBS twice (1500 rpm, 10 min, 4° C.) and then counted using a Neubauer chamber.

Another series relates to PECAM-1. The series is described as follows: Western immunoblot of PECAM-1 expression in HUVEC. The series is classed as cell-based, human. As for the experimental part: (A) Western blot analysis of PECAM-1 expression in HUVECs that were pretreated with either LY294002 (75 μM), L-NAME (100 μM) or PDTC (25 μM) for 90 min, followed by incubation with VEGF (25 ng/ml) for 4 hrs. […] (C) HUVECs were pretreated with either LY294002 (75 μM), L-NAME (100 μM), PDTC (25 μM), PECAM-1 monoclonal antibody (4 μg/ml) or mouse IgG (4 μg/ml) for 90 min, followed by incubation with VEGF (25 ng/ml) for 4 hrs and then U937 (monocyte) TEM assays were performed as described below. *P<0.001 vs. vehicle control; **P<0.001 vs. […] Cells treated with agonists/antagonists were washed twice in PBS and lysed with mammalian protein extraction reagent (Pierce Biotechnology) supplemented with protease inhibitor cocktail (Roche Diagnostics GmbH). Protein content was determined using a Bradford dye binding assay kit from Bio-Rad Laboratories, Inc. (Richmond, Calif.) using BSA as standard. Twenty-five μg of cellular protein was resolved by 10% SDS-PAGE and then transferred to nitrocellulose membrane. After blocking (5% non-fat dry milk powder in Tris-buffered saline, pH 8.0 containing 0.05% Tween 20) for 1 hr at room temperature, membranes were incubated with appropriate primary antibodies. […] The x-ray films were then densitometrically scanned using a Molecular Dynamics Image Scanner and analyzed using Image Quant software.
In general terms: A western blot detects proteins with antibodies after separation by electrophoresis.

The subject of series [2] is HUVEC.
The subject of a further series is HAEC. Put plainly: In vitro angiogenesis/tube formation assay in HAEC. The series is classed as cell-based, human. As for the experimental part: HUVECs were grown on 24-well culture plates and then exposed to various agonists/antagonists. After stipulated time points, cells were trypsinized, washed in sterile PBS twice and then reconstituted in EGM™ containing 2% FBS. In vitro angiogenesis assay was performed using a commercially available kit from Chemicon International. In brief, 50 μl of ECMatrix™ were placed on 96-well plates and allowed to polymerize at 37° C. for 2 hr. Then, HUVEC/HAEC (5×10^3) were suspended in 200 μl of EGM containing 2% FBS and pretreated with inhibitors±VEGF/bFGF/LacCer/S1P for an hr at 37° C., then the cells were added on top of the polymerized ECMatrix™ and incubated at 37° C. in 5% CO2 atmosphere for 8-12 hrs. Tubes formed were documented using phase contrast microscope (NIKON) at 10× magnification. Images were acquired using CCD camera connected to computer with online image acquiring software AxioVision software (ZEISS). For quantification of tube lengths, images were exported to NIH Image J Software (http://rsb.info.hih.gov/ij/download.html). Results are shown as the mean tube length±SD (in um) for three photographic fields per experiment/well for at least three experiments per condition.

Series [3] deals with HUVEC. Put plainly: Apoptosis in HUVEC (DAPI staining, cytochrome c release). The series is classed as cell-based, human. The conditions noted are these: basal medium with 2% fetal bovine serum, data not shown.
Another series relates to renal cancer. The series is described as follows: Mice model of renal cancer. Format: in vivo.
For a further series, the system named is LacCer synthase. The series is described as follows: LacCer synthase activity in tissues of treated mice. Format: in vivo. As for the experimental part: (§1) Female athymic nude mice were injected subcutaneously with […] of Matrigel mixture, containing VEGF (4 μg/ml) and b-FGF (4 μg/ml). Two days later, D-PDMP (10 mg/kg) suspended in 5% Tween-80/0.85% NaCl and was injected intraperitoneally daily for ten days. Mice, injected with vehicle alone, served as control. Passaniti et al., 67 LAB. INVEST. 519-28 (1992). Next, Matrigel plugs were removed, fixed in 10% formalin/PBS, embedded in paraffin and sectioned. Sections were stained with trichrome-Masson stain and photographed. Tissues were also flash-frozen and the activity of LacCer synthase was measured.
The activity of LacCer synthase was measured using ^14C-UDP-Gal as donor and GlcCer as substrate as described previously. See Chatterjee, S., 311 METHODS ENZYMOL. 73-81 (2000).

For the next series, the system named is nude mice. The series is described as follows: In vivo angiogenesis, Matrigel plug assay in nude mice. To be noted: Matrigel plug with VEGF/bFGF 4 μg/ml, D-PDMP 10 mg/kg IP daily for 10 days. As for the experimental part: In vivo angiogenesis was measured by Matrigel plug assay in nude mice. Matrigel mixed with VEGF and bFGF (4 μg/ml each) with or without D-PDMP was injected subcutaneously into the abdomen of nude mice. Plugs were retrieved after 10 days with daily dose of D-PDMP (10 mg/kg Intraperitoneal). […] Approximately 10 fields were taken for each plug, and five plugs from each treated or control group were analyzed by Image Pro software. Results are expressed as percent micro vessel area means±SEM. *P<0.001 versus untreated controls (n=6).
as §1

Setting [4] is: LY294002 75 μM, PDTC 25 μM for 90 min, then VEGF 25 ng/ml 4 hrs.

`Cc1ccc(C(=O)Nc2ccc(S(=O)(=O)O)c3cc(S(=O)(=O)O)cc(S(=O)(=O)O)c23)cc1NC(=O)c1cccc(NC(=O)Nc2cccc(C(=O)Nc3cc(C(=O)Nc4ccc(S(=O)(=O)O)c5cc(S(=O)(=O)O)cc(S(=O)(=O)O)c45)ccc3C)c2)c1` [suramin]: in the series with HUVEC [1], the “Effect on LacCer-induced tube formation/angiogenesis” value is “not”, the “Effect on S1P-induced tube formation” value is “inhibited” and the “Effect on VEGF-induced tube formation” value is listed as “inhibited”. Besides, the “Effect on VEGF-induced tube formation” value in the series on HUVEC [1] (listed as surmain) is listed as “mitigated”.
Regarding `S=C(S)N1CCCC1` [PDTC, 1-pyrrolodinecarbodithioicacid], the “Effect on VEGF-induced tube formation” value with HUVEC [1] is given as “blunted”. Further, in the series on U-937 cells (setting [4]), the “Effect on VEGF-induced transendothelial migration (TEM) of U-937 cells” value is listed as “blunted”. In addition, the “Effect on VEGF-induced PECAM-1 expression” value with PECAM-1 (setting [4]) is given as “blunted”.
For the compound `CCCCCCCCCCCCC/C=C/[C@@H](O)[C@H](CO)N(C)C` [DMS, dimethyl sphingosine], in the series on HUVEC [1], the “Effect on S1P-induced tube formation” value is reported as “inhibited” and the “Effect on VEGF-induced tube formation” value is “inhibited; also recorded: abrogated”.
In the case of VEGF, the “Induction of tube formation” value in the series with HUVEC [1] was “marked tube formation; also recorded: induced tube formation; also recorded: induced marked”; in the series with HAEC (HAEC), “induced marked tube formation; also recorded: markedly induced”. Moreover, the “Induction of transendothelial migration (TEM) of U-937 cells” value in the series on U-937 cells (VEGF 25 ng/ml 4 hrs) is reported as “induced marked”. Besides, the “Induction of PECAM-1 expression” value in the series with PECAM-1 (VEGF 25 ng/ml 4 hrs) was “induced marked expression”. The Stimulation of proliferation entry in the series with HUVEC [2] is listed as “stimulated proliferation”.
On to Lactosylceramide [LacCer], for which, in the series with HUVEC [1], the “Bypass of DMS inhibition of VEGF-induced tube formation” value is on record as “bypassed; also recorded: by-passed”, the “Bypass of suramin inhibition of S1P-induced angiogenesis” value is recorded as “by passed”, the “Bypass of suramin inhibition of VEGF-induced tube formation” value is “bypassed” and the “Induction of tube formation” value is “induced tube formation”. In addition, in the series on HUVEC [1], the “Bypass of D-PDMP inhibition of VEGF-induced tube formation” value is on record as “bypassed the inhibitory effect”. In the series with HAEC (HAEC, LacCer 2.5 μM), the “Reversal of D-PDMP inhibition of VEGF-induced tube formation” value is “reversed” and the “Reversal of D-PDMP inhibition of bFGF-induced tube formation” value was “reversed”.
As for `CCCCCCCCCCCCC/C=C/[C@@H](O)[C@@H](N)COP(=O)(O)O` [S1P, sphingosine-1-phosphate], in the series with HUVEC [1], the “Bypass of DMS inhibition of VEGF-induced tube formation” value is given as “not” and the “Bypass of D-PDMP inhibition of VEGF-induced tube formation” value is recorded as “not”.
With “bFGF: Human recombinant basic fibroblast growth factor”, the “Induction of tube formation” value in the series on HAEC (HAEC) is “induced marked tube formation”.
`CCCCCCCCCC(=O)N[C@H](CN1CCOCC1)[C@H](O)c1ccccc1` [D-PDMP, D-threo-1-Phenyl-2-decanoylamino-3-morpholino-1-propanol]: the “Effect on apoptosis, compound alone” value in the series on HUVEC [3] is reported as “did not alter”. Also, in the series on renal cancer, the Survival entry is on record as “markedly reduce” and the Tumor volume entry is given as “markedly reduce”. In addition, in the series with HUVEC [1], the “Effect on LacCer-induced tube formation/angiogenesis” value is given as “blunted” and the “Effect on VEGF-induced tube formation” value was “inhibited; also recorded: blunted”. In addition, in the series on HUVEC [2] (D-PDMP 10-20 μM), the “Effect on VEGF-stimulated proliferation” value is listed as “reduced this effect significantly”. Further, the “Effect on cell proliferation, compound alone” value with HUVEC [2] (basal medium with 2% fetal bovine serum, data not shown) is “did not alter”. In the series with HAEC (HAEC, D-PDMP 20 μM), the “Effect on VEGF-induced tube formation” value is reported as “inhibited” and the “Effect on bFGF-induced tube formation” value is “inhibited”. In the series on HAEC (human arterial endothelial cells), the “Effect on VEGF/B-FGF-induced angiogenesis” value was “mitigated”. In addition, the “Decrease in the activity of LacCer synthase” value in the series with LacCer synthase (D-PDMP 10 mg/kg IP 10 days, versus agonist treated mice) is on record as 39%. The “Activity of LacCer synthase” value in the series on LacCer synthase (D-PDMP treated animals, 10 mg/kg IP 10 days) is 0.200±0.015 nmol/mg protein. Besides, the “Effect on VEGF/bFGF-induced angiogenesis in vivo” value in the series on nude mice (P<0.001) is “significantly inhibited; also recorded: mitigated”. The “Effect on VEGF/bFGF-induced angiogenesis in vivo” value in the series on nude mice (P<0.001, listed as PDMP) is given as “mitigates”.
